# Measurements reported in patent US6706663B2, “Herbicidal 3-heterocyclic substituted benzisothiazole and benzisoxazole compounds” (Wyeth, priority 2000, dated 2004).
# Key:
# [1] = tested on: CASOB (Cassia obtusifolia); test: Preemergence herbicidal evaluation; format: in vivo, L.; conditions: Rate 0.2500 kg/ha, rated 4-5 weeks after treatment
# Text: (§1) Results of herbicide evaluation are expressed on a rating scale (0-9). The scale is based upon a visual observation of plant stand, vigor, malformation, size, chlorosis and overall plant appearance as compared with a control.
# (§2) The preemergence herbicidal activity of the test compounds of the present invention is exemplified by the following tests in which the seeds of a variety of monocotyledonous and dicotyledonous plants are separately mixed with potting soil and planted on top of approximately one inch of soil in separate pint cups. […] The treated cups are then placed on greenhouse benches, watered and cared for in accordance with conventional greenhouse procedures. From four to five weeks after treatment, the tests are terminated and each cup is examined and rated according to the rating system provided in Example 87. The plant species used and the compounds evaluated are the same as those shown in Example 87.
# [2] = tested on: AMBEL (Ambrosia artemisifolia); test: Preemergence herbicidal evaluation; format: in vivo, L.; conditions: Rate 0.2500 kg/ha, rated 4-5 weeks after treatment
# Text: as §1, §2
# [3] = tested on: CHEAL (Chenopodium album); test: Preemergence herbicidal evaluation; format: in vivo, L.; conditions: Rate 0.2500 kg/ha, rated 4-5 weeks after treatment
# Text: as §1, §2
# [4] = tested on: CASOB (Cassia obtusifolia); test: Postemergence herbicidal evaluation; format: in vivo, L.; conditions: rate 0.0620 kg/ha
# Description: (§3) In the tests, seedling plants are grown in jiffy flats for about two weeks. […] After spraying, the plants are placed on greenhouse benches and are cared for in accordance with conventional greenhouse procedures. From four to five weeks after treatment, the seedling plants are examined and rated according to the rating system set forth below. Where more than one test is involved for a given compound, the data are averaged.
# as §1
# [5] = tested on: AMBEL (Ambrosia artemisifolia); test: Postemergence herbicidal evaluation; format: in vivo, L.; conditions: rate 0.0620 kg/ha
# Description: as §3, §1
# GALAP (Galium aparine) [6] = test: Preemergence herbicidal evaluation; format: in vivo; conditions: Rate 0.2500 kg/ha, rated 4-5 weeks after treatment
# Text: as §1, §2
# SETVI (Setaria viridis) [7] = test: Preemergence herbicidal evaluation; format: in vivo, (L.) Beau; conditions: Rate 0.2500 kg/ha, rated 4-5 weeks after treatment
# Text: as §1, §2
# [8] = tested on: ECHCG (Echinochloa crus-galli); test: Preemergence herbicidal evaluation; format: in vivo, (L.) Beau; conditions: Rate 0.2500 kg/ha, rated 4-5 weeks after treatment
# Text: as §1, §2
# [9] = tested on: ECHORC (Echinochloa oryzoides); test: Flooded paddy, preemergence weed control; format: in vivo, Echinochloa oryzoides (Ard.) Fritsch.; conditions: rate 0.1250 kg/ha, rated 3-4 weeks after treatment, 0-9 rating scale
# Description: as §1
# (§4) Preemergence herbicidal activity under flooded paddy conditions is determined as follows: plant seeds or propagating organs are planted in the top 0.5 cm of silt loam soil in 32 oz. plastic containers with a diameter of 10.5 cm and no drainage holes. Water is added to these containers and maintained at 1.5 to 3 cm above the soil surface for the duration of the experiment. […] The treated containers are placed on greenhouse benches and cared for in accordance with conventional greenhouse procedures.
# [10] = tested on: GLXMAW (Soybean, Williams); test: Preemergence herbicidal evaluation; format: in vivo, Glycine max, (L.) Merr. cv Williams; conditions: Rate 0.2500 kg/ha, rated 4-5 weeks after treatment
# Text: as §1, §2
# GALAP (Galium aparine) [11] = test: Postemergence herbicidal evaluation; format: in vivo; conditions: rate 0.0620 kg/ha
# Description: as §3, §1
# [12] = tested on: TRZAWR (Wheat, Winter, cv Riband); test: Postemergence herbicidal evaluation; format: in vivo, Triticum aestivum; conditions: rate 0.0620 kg/ha
# Description: as §3, §1
# [13] = tested on: GLXMAW (Soybean, Williams); test: Postemergence herbicidal evaluation; format: in vivo, Glycine max, (L.) Merr. cv Williams; conditions: rate 0.0620 kg/ha
# Description: as §3, §1
# CYPIR (Cyperus iria) = test: Flooded paddy, preemergence weed control; format: in vivo; conditions: rate 0.1250 kg/ha, rated 3-4 weeks after treatment, 0-9 rating scale
# Description: as §1, §4
# [14] = tested on: ABUTH (Abutilon theophrasti); test: Preemergence herbicidal evaluation; format: in vivo, Medic.; conditions: Rate 0.2500 kg/ha, rated 4-5 weeks after treatment
# Text: as §1, §2
# ZEAMX (Corn, Field) [15] = test: Postemergence herbicidal evaluation; format: in vivo, Zea mays, L.; conditions: rate 0.0620 kg/ha
# Description: as §3, §1
# [16] = tested on: CYPSE (Cyperus serotinus); test: Flooded paddy, preemergence weed control; format: in vivo, Rottb.; conditions: rate 0.1250 kg/ha, rated 3-4 weeks after treatment, 0-9 rating scale
# Description: as §1
# Preemergence herbicidal activity under flooded paddy conditions is determined as follows: plant seeds or propagating organs are planted in the top 0.5 cm of silt loam soil in 32 oz. plastic containers with a diameter of 10.5 cm and no drainage holes. Water is added to these containers and maintained at 1.5 to 3 cm above the soil surface for the duration of the experiment. The test compounds are applied as aqueous/acetone mixtures 50/50 v/v pipetted directly into the flood water to give the equivalent of about 0.0080 to 0.1250 kg/ha of active ingredient. The treated containers are placed on greenhouse benches and cared for in accordance with conventional greenhouse procedures. Three to four weeks after treatment, the test is terminated and each container is examined and herbicidal effect rated according to the rating system provided in Example 87.
# [17] = tested on: IPOHE (Ipomoea hederacea); test: Postemergence herbicidal evaluation; format: in vivo, (L.) Jacq.; conditions: rate 0.0620 kg/ha
# Description: as §3, §1
# [18] = tested on: ABUTH (Abutilon theophrasti); test: Postemergence herbicidal evaluation; format: in vivo, Medic.; conditions: rate 0.0620 kg/ha
# Description: as §3, §1
# ORYSAT (Rice, Tebonnet) [19] = test: Preemergence herbicidal evaluation; format: in vivo, Oryza sativa, (L.) Tebonnet; conditions: Rate 0.2500 kg/ha, rated 4-5 weeks after treatment
# Text: as §1, §2
# [20] = tested on: TRZAWR (Wheat, Winter, cv Riband); test: Preemergence herbicidal evaluation; format: in vivo, Triticum aestivum; conditions: Rate 0.2500 kg/ha, rated 4-5 weeks after treatment
# Text: as §1, §2
# ORYSAT (Rice, Tebonnet) [21] = test: Flooded paddy, post-transplant rice tolerance; format: in vivo, Oryza sativa, (L.) Tebonnet
# Description: as §1
# The tolerance of transplanted rice to post-transplanted herbicide application is determined as follows: two ten-day-old rice seedlings (cv. Tebonnet) are transplanted into silt loam soil in 32 oz. plastic containers with a diameter of 10.5 cm and no drainage holes. After transplanting, the containers are flooded and the water level is maintained at 1.5 to 3 cm above the soil surface. […] The treated containers are placed on greenhouse benches, watered such that the water level is maintained as stated above, and cared for in accordance with conventional greenhouse procedures.
# [22] = tested on: SAGPY (Sagittaria pygmaea); test: Flooded paddy, preemergence weed control; format: in vivo, L.; conditions: rate 0.1250 kg/ha, rated 3-4 weeks after treatment, 0-9 rating scale
# Description: as §1, §4
# ZEAMX (Corn, Field) [23] = test: Preemergence herbicidal evaluation; format: in vivo, Zea mays, L.; conditions: Rate 0.2500 kg/ha, rated 4-5 weeks after treatment
# Text: as §1, §2
# [24] = tested on: ECHCG (Echinochloa crus-galli); test: Postemergence herbicidal evaluation; format: in vivo, (L.) Beau; conditions: rate 0.0620 kg/ha
# Description: as §3, §1
# ORYSAT (Rice, Tebonnet) [25] = test: Postemergence herbicidal evaluation; format: in vivo, Oryza sativa, (L.) Tebonnet; conditions: rate 0.0620 kg/ha
# Description: as §3, §1
# [26] = tested on: IPOHE (Ipomoea hederacea); test: Preemergence herbicidal evaluation; format: in vivo, (L.) Jacq.; conditions: Rate 0.2500 kg/ha, rated 4-5 weeks after treatment
# Text: as §1, §2
# SETVI (Setaria viridis) [27] = test: Postemergence herbicidal evaluation; format: in vivo, (L.) Beau; conditions: rate 0.0620 kg/ha
# Description: In the tests, seedling plants are grown in jiffy flats for about two weeks. The test compounds are dispersed in 50/50 acetone/water mixtures containing 0.5% TWEEN® 20, a polyoxyethylene sorbitan monolaurate surfactant of Atlas Chemical Industries, in sufficient quantities to provide the equivalent of about 0.0040 kg to 1.000 kg per hectare of active compound when applied to the plants through a spray nozzle operating at 40 psi for a predetermined time. After spraying, the plants are placed on greenhouse benches and are cared for in accordance with conventional greenhouse procedures. From four to five weeks after treatment, the seedling plants are examined and rated according to the rating system set forth below. Where more than one test is involved for a given compound, the data are averaged.
# as §1
# [28] = tested on: CHEAL (Chenopodium album); test: Postemergence herbicidal evaluation; format: in vivo, L.; conditions: postemergence, rate 0.0620 kg/ha
# Description: as §3, §1
# [29] = tested on: MOOVA (Monochoria vaginalis); test: Flooded paddy, preemergence weed control; format: in vivo, Presl.; conditions: rate 0.1250 kg/ha, rated 3-4 weeks after treatment, 0-9 rating scale
# Description: as §1, §4
smiles,measurement,setting,value
"Cn1c(C(F)(F)F)cc(=O)n(-c2ccc3c(c2)C(c2cccc[n+]2[O-])=NS3(=O)=O)c1=O [Compound 15, 1-methyl-3-[3-(2-pyridyl)-1,2-benzisothiazol-5-yl]-6-(trifluoromethyl)uracil N′,S,S-trioxide]",CASOB preemergence herbicidal rating,[1]; preemergence,0.0
same,AMBEL preemergence herbicidal rating,[2]; preemergence,7.0
same,CHEAL preemergence herbicidal rating,[3]; preemergence,9.0
same,"Postemergence herbicidal rating, CASOB",[4],1.0
same,"Postemergence herbicidal rating, AMBEL",[5],9.0
same,GALAP preemergence herbicidal rating,GALAP (Galium aparine) [6]; preemergence,0.0
same,SETVI preemergence herbicidal rating,SETVI (Setaria viridis) [7]; preemergence,5.0
same,ECHCG preemergence herbicidal rating,[8]; preemergence,5.0
same,"herbicidal rating, ECHORC",[9],0.0
same,GLXMAW preemergence herbicidal rating,[10]; preemergence,2.0
same,"Postemergence herbicidal rating, GALAP",GALAP (Galium aparine) [11],1.0
same,"Postemergence herbicidal rating, TRZAWR",[12],3.5
same,"Postemergence herbicidal rating, GLXMAW",[13],5.0
same,"herbicidal rating, CYPIR",CYPIR (Cyperus iria),0.0
same,ABUTH preemergence herbicidal rating,[14]; preemergence,7.0
same,"Postemergence herbicidal rating, ZEAMX","ZEAMX (Corn, Field) [15]",5.0
same,"herbicidal rating, CYPSE",[16],0.0
same,"Postemergence herbicidal rating, IPOHE",[17],9.0
same,"Postemergence herbicidal rating, ABUTH",[18],6.0
same,ORYSAT preemergence herbicidal rating,"ORYSAT (Rice, Tebonnet) [19]; preemergence",3.0
same,TRZAWR preemergence herbicidal rating,[20]; preemergence,3.0
same,"herbicidal rating, ORYSAT (rice tolerance)","ORYSAT (Rice, Tebonnet) [21]; in vivo",0.0
same,"herbicidal rating, SAGPY",[22],0.0
same,ZEAMX preemergence herbicidal rating,"ZEAMX (Corn, Field) [23]; preemergence",1.0
same,"Postemergence herbicidal rating, ECHCG",[24],1.0
same,"Postemergence herbicidal rating, ORYSAT","ORYSAT (Rice, Tebonnet) [25]",3.5
same,IPOHE preemergence herbicidal rating,[26]; preemergence,6.0
same,"Postemergence herbicidal rating, SETVI",SETVI (Setaria viridis) [27],1.0
"Cn1c(C(F)(F)F)cc(=O)n(-c2ccc3snc(C4OCC(CBr)O4)c3c2)c1=O (stereo not drawn) [Compound 79, 3-[3-[4-(bromomethyl)-1,3-dioxolan-2-yl]-1,2-benzisothiazol-5-yl]-1-methyl-6-(trifluoromethyl)uracil]",Preemergence herbicidal rating CASOB,[1],9.0
same,Preemergence herbicidal rating AMBEL,[2],9.0
same,Preemergence herbicidal rating CHEAL,[3],9.0
same,CASOB herbicidal rating,[4]; postemergence,6.0
same,AMBEL herbicidal rating,[5]; postemergence,9.0
same,CHEAL herbicidal rating,[28],9.0
same,Preemergence herbicidal rating GALAP,GALAP (Galium aparine) [6],9.0
same,Preemergence herbicidal rating SETVI,SETVI (Setaria viridis) [7],9.0
same,Preemergence herbicidal rating ECHCG,[8],9.0
same,"herbicidal rating, ECHORC",[9],9.0
same,Preemergence herbicidal rating GLXMAW,[10],9.0
same,GALAP herbicidal rating,GALAP (Galium aparine) [11]; postemergence,4.0
same,TRZAWR herbicidal rating,[12]; postemergence,2.5
same,GLXMAW herbicidal rating,[13]; postemergence,6.0
same,"herbicidal rating, CYPIR",CYPIR (Cyperus iria),9.0
same,Preemergence herbicidal rating ABUTH,[14],9.0
same,ZEAMX herbicidal rating,"ZEAMX (Corn, Field) [15]; postemergence",3.5
same,IPOHE herbicidal rating,[17]; postemergence,8.0
same,"herbicidal rating, MOOVA",[29],9.0
same,ABUTH herbicidal rating,[18]; postemergence,9.0
same,Preemergence herbicidal rating ORYSAT,"ORYSAT (Rice, Tebonnet) [19]",8.0
same,Preemergence herbicidal rating TRZAWR,[20],8.0
same,"herbicidal rating, ORYSAT (rice tolerance)","ORYSAT (Rice, Tebonnet) [21]; flooded paddy, post-transplant rice, rate 0.1250 kg/ha, rated 3-4 weeks after treatment, 0-9 rating scale",7.0
same,"herbicidal rating, SAGPY",[22],3.0
same,Preemergence herbicidal rating ZEAMX,"ZEAMX (Corn, Field) [23]",7.0
same,ECHCG herbicidal rating,[24]; postemergence,4.0
same,ORYSAT herbicidal rating,"ORYSAT (Rice, Tebonnet) [25]; postemergence",3.5
same,Preemergence herbicidal rating IPOHE,[26],7.0
same,SETVI herbicidal rating,SETVI (Setaria viridis) [27]; postemergence,6.0
